Reference: patent US11964949B2, “Substituted phenyloxazolidinones for antimicrobial therapy” (priority 2015, dated 2024)
≈ marks a conversion by molar mass, not a printed value. Like-named read-outs stand apart in the source and are kept apart here.

Assays:
[1] = tested on: mitochondrial protein synthesis (MPS) in H9C2 cells; test: In vitro assay for MPS inhibition (COX-1 / SDH-A ELISA in H9C2 cells); type: cell-based, rat; details: Rattus norvegicus, read-out: IC50 (μM) MPS inhibition
[2] = tested on: Mycobacterium tuberculosis H37Rv; test: In vitro assay for antimicrobial susceptibility (microplate Alamar blue, MIC); type: cell-based; details: for MIC: Mycobacterium tuberculosis, read-out: MIC (μg/mL) against H37Rv
[3] = 120 h, H9C2 cells, 5 days incubation
[4] = M. tuberculosis H37Rv, 7H9 broth, Alamar blue

O=C1O[C@@H](CNc2ccon2)CN1c1ccc(N2CC3(COC3)C2)c(F)c1 [OBD-056]
IC50 [1, 3]: 17 µM | MIC [2, 4]: 1.9 µg/mL (≈ 5.08 µM)

O=C1O[C@@H](Cn2nccn2)CN1c1ccc(N2CCC[S+]([O-])CC2)c(F)c1 (stereo partly drawn) [OTB-138, (5R)-5-((2H-1,2,3-Triazol-2-yl)methyl)-3-(3-fluoro-4-(1-oxido-1,4-thiazepan-4-yl)phenyl)oxazolidin-2-one]
IC50 [1, 3]: > 100 µM | MIC [2, 4]: 7.57 µg/mL (≈ 19.2 µM)

CCCCS(=O)(=O)NC[C@H]1CN(c2ccc(N3CCCSCC3)c(F)c2)C(=O)O1 [OTB-116, (R)—N-[[3-(3-Fluoro-4-(1,4-thiazepan-4-yl)phenyl)-2-oxo-oxazolidin-5-yl]methyl]butane-1-sulfonamide]
IC50 [1, 3]: > 100 µM | MIC [2, 4]: 3.81 µg/mL (≈ 8.56 µM)

O=C(NC[C@H]1CN(c2ccc(N3CCC[S+]([O-])CC3)c(F)c2)C(=O)O1)c1ccco1 (stereo partly drawn) [OTB-127, N-[[(5S)-3-(3-Fluoro-4-(1-oxido-1,4-thiazepan-4-yl)phenyl)-2-oxo-oxazolidin-5-yl]methyl]furan-2-carboxamide]
IC50 [1, 3]: 10.2 µM | MIC [2, 4]: 1.23 µg/mL (≈ 2.83 µM)

COC(=O)NC[C@H]1CN(c2ccc(N3CCCSCC3)c(F)c2)C(=O)O1 [OTB-412, Methyl (S)-((3-(3-fluoro-4-(1,4-thiazepan-4-yl)phenyl)-2-oxo-oxazolidin-5-yl)methyl) carbamate]
IC50 [1, 3]: 10 µM | MIC [2, 4]: 0.199 µg/mL (≈ 0.519 µM)

CC(=O)NC[C@H]1CN(c2ccc(N3CC4(COC4)C3)c(F)c2)C(=O)O1 [OTB-202, (S)—N-((3-(3-Fluoro-4-(2-oxa-6-azaspiro[3.3]heptan-6-yl)phenyl)-2-oxo-oxazolidin-5-yl)methyl)acetamide]
IC50 [1, 3]: 17 to 29 µM | MIC [2, 4]: 0.6 to 1.2 µg/mL (≈ 1.72 to 3.43 µM)

O=C1O[C@@H](CO)CN1c1cc(F)c(N2CC3CCC(C2)O3)c(F)c1 [OBD-114, 3-(4-(8-oxa-3-aza-bicyclo[3.2.1]octan-3-yl)-3,5-difluorophenyl)-5-(hydroxymethyl)oxazolidin-2-one]
IC50 [1, 3]: > 100 µM | MIC [2, 4]: 1.7 µg/mL (≈ 5 µM)

CC(=O)NC[C@H]1CN(c2ccc(N3C4CSCC3C4)c(F)c2)C(=O)O1 [OTB-227, N-(((5S)-3-(4-(3-Thia-6-azabicyclo[3.1.1]heptan-6-yl)-3-fluorophenyl)-2-oxo-oxazolidin-5-yl)methyl)acetamide]
IC50 ([1]; H9c2, 120 h): 15.2 µM | MIC ([2]; H37RV): 0.889 µg/mL (≈ 2.43 µM)

O=C1O[C@@H](Cn2nccn2)CN1c1ccc(N2CC3(CSC3)C2)c(F)c1 [OTB-260-5A]
IC50 [1, 3]: > 100 µM | MIC [2, 4]: 0.44 µg/mL (≈ 1.17 µM)

NC[C@H]1CN(c2ccc(N3CC4(COC4)C3)c(F)c2)C(=O)O1 [OBD-057]
IC50 [1, 3]: 67 µM | MIC [2, 4]: 0.4 µg/mL (≈ 1.3 µM)

O=C1O[C@@H](CO)CN1c1ccc(N2CC3(CSC3)C2)c(F)c1 [OTB-260, (R)-3-(3-Fluoro-4-(2-thia-6-azaspiro[3.3]heptan-6-yl)phenyl)-5-(hydroxymethyl)oxazolidin-2-one]
IC50 [1, 3]: 30 µM | MIC [2, 4]: 1.49 µg/mL (≈ 4.59 µM)

CC(=O)NC[C@H]1CN(c2cc(F)c(N3C4CCC3COC4)c(F)c2)C(=O)O1 [OBD-051]
IC50 ([1]; H9c2, 120 h): 6 µM | MIC ([2]; H37RV): 0.6 µg/mL (≈ 1.57 µM)

O=C1O[C@@H](Cn2ccnn2)CN1c1cc(F)c(N2CC3(C2)C[S+]([O-])C3)c(F)c1 [OTB-522]
IC50 [1, 3]: 38 µM | MIC [2, 4]: 1 µg/mL (≈ 2.44 µM)

O=C1O[C@@H](Cn2cncn2)CN1c1ccc(N2CCC[S+]([O-])CC2)c(F)c1 (stereo partly drawn) [OTB-140, (5R)-5-((1H-1,2,4-Triazol-1-yl)methyl)-3-(3-fluoro-4-(1-oxido-1,4-thiazepan-4-yl)phenyl)oxazolidin-2-one]
IC50 [1, 3]: > 100 µM | MIC [2, 4]: 3.69 µg/mL (≈ 9.39 µM)

CNC(=O)OC[C@H]1CN(c2cc(F)c(N3CC4(C3)C[S+]([O-])C4)c(F)c2)C(=O)O1 [OTB-516-4B]
IC50 [1, 3]: > 100 µM | MIC ([2]; H37RV): 4.7 µg/mL (≈ 11.3 µM)

O=C1O[C@@H](Cn2ccnn2)CN1c1cc(F)c(N2CCCSCC2)c(F)c1 [OTB-411, (R)-5-((1H-1,2,3-triazol-1-yl)methyl)-3-(3,5-difluoro-4-(1,4-thiazepan-4-yl)phenyl)oxazolidin-2-one]
IC50 [1, 3]: 8.73 µM | MIC [2, 4]: 0.124 µg/mL (≈ 0.314 µM)

O=C(NC[C@H]1CN(c2ccc(N3CC4(COC4)C3)c(F)c2)C(=O)O1)C1CC1 [OTB-238, (S)—N-((3-(3-Fluoro-4-(2-oxa-6-azaspiro[3.3]heptan-6-yl)phenyl)-2-oxo-oxazolidin-5-yl)methyl)cyclopropanecarboxamide]
IC50 [1, 3]: 20 µM | MIC [2, 4]: 2 to 4 µg/mL (≈ 5.33 to 10.7 µM)

NC[C@H]1CN(c2cc(F)c(N3C4CCC3C[S+]([O-])C4)c(F)c2)C(=O)O1 (stereo partly shown) [OBD-087]
IC50 ([1]; H9c2, 120 h): > 100 µM | MIC ([2]; H37RV): 0.86 µg/mL (≈ 2.32 µM)

CC(=O)NC[C@H]1CN(c2cc(F)c(N3CCCSCC3)c(F)c2)C(=O)O1 [OTB-407, (S)—N-((3-(3,5-Difluoro-4-(1,4-thiazepan-4-yl)phenyl)-2-oxo-oxazolidin-5-yl)methyl)acetamide]
IC50 [1, 3]: 3.08 µM | MIC [2, 4]: 0.097 µg/mL (≈ 0.252 µM)

COC(=O)NC[C@H]1CN(c2ccc(N3[C@@H]4CC[C@H]3CSC4)c(F)c2)C(=O)O1 [OTB-237, Methyl (((S)-3-(4-((1R,5S)-3-thia-8-azabicyclo[3.2.1]octan-8-yl)-3-fluorophenyl)-2-Oxo-oxazolidin-5-yl)methyl)carbamate]
IC50 ([1]; H9c2, 120 h): 15 to 23 µM | MIC ([2]; H37RV): 0.03 to 0.11 µg/mL (≈ 0.0759 to 0.278 µM)

NC[C@H]1CN(c2ccc(N3C4CCC3CSC4)c(F)c2)C(=O)O1 [OBD-081, (5S)-3-(4-(3-thia-8-aza-bicyclo[3.2.1]octan-8-yl)-3-fluorophenyl)-5-(aminomethyl)oxazolidin-2-one]
IC50 ([1]; H9c2, 120 h): 77 µM | MIC ([2]; H37RV): 0.47 µg/mL (≈ 1.39 µM)

COC(=O)NC[C@H]1CN(c2ccc(N3CC4CCC(C3)O4)c(F)c2)C(=O)O1 [OBD-111]
IC50 [1, 3]: 7 µM | MIC [2, 4]: 0.49 µg/mL (≈ 1.29 µM)

CS(=O)(=O)NC[C@H]1CN(c2ccc(N3CC4(C3)C[S+]([O-])C4)c(F)c2)C(=O)O1 [OTB-260-2B]
IC50 [1, 3]: > 100 µM | MIC [2, 4]: 0.49 µg/mL (≈ 1.17 µM)

O=C1O[C@@H](Cn2ccnn2)CN1c1ccc(N2CCCSCCC2)c(F)c1 [OBD-001, (R)-5-((1H-1,2,3-triazol-1-yl)methyl)-3-(3-fluoro-4-(1,5-thiazocan-5-yl)phenyl)oxazolidin-2-one]
IC50 [1, 3]: 12 µM | MIC [2, 4]: 0.3 µg/mL (≈ 0.766 µM)

COC(=O)NC[C@H]1CN(c2cc(F)c(N3CC4(C3)C[S+]([O-])C4)c(F)c2)C(=O)O1 [OTB-253]
IC50 [1, 3]: 10 µM | MIC [2, 4]: 0.7 µg/mL (≈ 1.69 µM)

CNC(=O)OC[C@H]1CN(c2cc(F)c(N3CC4(CSC4)C3)c(F)c2)C(=O)O1 [OTB-516-4A]
IC50 [1, 3]: > 100 µM | MIC ([2]; H37RV): 0.03 µg/mL (≈ 0.0751 µM)

CCCC(=O)NC[C@H]1CN(c2cc(F)c(N3C4CCC3C[S+]([O-])C4)c(F)c2)C(=O)O1 (stereo partly shown) [OBD-242]
IC50 ([1]; H9c2, 120 h): > 100 µM | MIC ([2]; H37RV): 0.61 µg/mL (≈ 1.38 µM)

CC(=O)NC[C@H]1CN(c2cc(F)c(N3CC4(COC4)C3)c(F)c2)C(=O)O1 [OTB-230, (S)—N-((3-(3,5-Difluoro-4-(2-oxa-6-azaspiro[3.3]heptan-6-yl)phenyl)-2-oxo-oxazolidin-5-yl)methyl)acetamide]
IC50 [1, 3]: 13 µM | MIC [2, 4]: 0.2 µg/mL (≈ 0.544 µM)

CC(=O)NC[C@H]1CN(c2ccc(N3CC4(CSC4)C3)c(F)c2)C(=O)O1 [OTB-261, (S)—N-((3-(3-Fluoro-4-(2-thia-6-azaspiro[3.3]heptan-6-yl)phenyl)-2-oxo-oxazolidin-5-yl)methyl)acetamide]
IC50 [1, 3]: 2 µM | MIC [2, 4]: 0.12 µg/mL (≈ 0.328 µM)

CC(=O)NC[C@H]1CN(c2cc(F)c(N3CC4(C3)C[S+]([O-])C4)c(F)c2)C(=O)O1 [OTB-520]
IC50 [1, 3]: 17 µM | MIC [2, 4]: 0.4 µg/mL (≈ 1 µM)

CS(=O)(=O)NC[C@H]1CN(c2ccc(N3CC4(COC4)C3)c(F)c2)C(=O)O1 [OTB-222, (R)—N-((3-(3-Fluoro-4-(2-oxa-6-azaspiro[3.3]heptan-6-yl)phenyl)-2-oxo-oxazolidin-5-yl)methyl)methanesulfonamide]
MIC [2, 4]: 7.4 µg/mL (≈ 19.2 µM)

O=C1O[C@@H](Cn2ccnn2)CN1c1ccc(N2[C@@H]3CC[C@H]2CSC3)c(F)c1 [OTB-504, (R)-5-((1H-1,2,3-Triazol-1-yl)methyl)-3-(4-((1R,5S)-3-thia-8-azabicyclo[3.2.1]octan-8-yl)-3-fluorophenyl)oxazolidin-2-one]
MIC ([2]; H37RV): 0.5 to 0.7 µg/mL (≈ 1.28 to 1.8 µM)

O=C1O[C@@H](Cn2ccnn2)CN1c1cc(F)c(N2[C@@H]3CC[C@H]2CSC3)c(F)c1 [OTB-511, (R)-5-((1H-1,2,3-Triazol-1-yl)methyl)-3-(4-((1R,5S)-3-thia-8-azabicyclo[3.2.1]octan-8-yl)-3,5-difluorophenyl)oxazolidin-2-one]
MIC ([2]; H37RV): 0.06 to 0.2 µg/mL (≈ 0.147 to 0.491 µM)

O=C(NC[C@H]1CN(c2ccc(N3CCCSCCC3)c(F)c2)C(=O)O1)c1cccs1 [OTB-118, (S)—N-[[3-(3-Fluoro-4-(1,5-thiazocan-5-yl)phenyl)-2-oxo-oxazolidin-5-yl]methyl]thiophene-2-carboxamide]
MIC [2, 4]: 1.55 µg/mL (≈ 3.44 µM)

COC(=O)NC[C@H]1CN(c2ccc(N3CC4(COC4)C3)c(F)c2)C(=O)O1 [OTB-223, Methyl (S)-((3-(3-fluoro-4-(2-oxa-6-azaspiro[3.3]heptan-6-yl)phenyl)-2-oxo-oxazolidin-5-yl)methyl)carbamate]
MIC [2, 4]: 0.8 to 2.6 µg/mL (≈ 2.19 to 7.12 µM)

(R)-5-((1H-1,2,3-Triazol-1-yl)methyl)-3-(3-fluoro-4-(2-oxa-6-azaspiro[3.3]heptan-6-yl)phenyl)oxazolidin-2-one [OTB-203]
MIC (μg/mL) against H37Rv [2, 4]: >32 µg/mL

O=C(NC[C@H]1CN(c2ccc(N3CC4(COC4)C3)c(F)c2)C(=O)O1)c1cccs1 [OTB-206, (S)—N-((3-(3-Fluoro-4-(2-oxa-6-azaspiro[3.3]heptan-6-yl)phenyl)-2-oxo-oxazolidin-5-yl)methyl)thiophene-2-carboxamide]
MIC [2, 4]: 2.8 µg/mL (≈ 6.71 µM)

O=C(NC[C@H]1CN(c2cc(F)c(N3CC4(CSC4)C3)c(F)c2)C(=O)O1)C1CCC1 [OTB-244, (S)—N-((3-(3,5-Difluoro-4-(2-thia-6-azaspiro[3.3]heptan-6-yl)phenyl)-2-oxo-oxazolidin-5-yl)methyl)cyclobutanecarboxamide]
MIC [2, 4]: 0.02 to 0.6 µg/mL (≈ 0.0472 to 1.42 µM)

O=C1O[C@@H](CO)CN1c1ccc(N2[C@@H]3CC[C@H]2CSC3)c(F)c1 [OTB-501, (R)-3-(4-((1R,5S)-3-Thia-8-azabicyclo[3.2.1]octan-8-yl)-3-fluorophenyl)-5-(hydroxymethyl)oxazolidin-2-one]
MIC ([2]; H37RV): 4.5 µg/mL (≈ 13.3 µM)

COC(=O)NC[C@H]1CN(c2cc(F)c(N3CC4CCC(C3)O4)c(F)c2)C(=O)O1 [OBD-049]
MIC [2, 4]: 0.25 to 1 µg/mL (≈ 0.629 to 2.52 µM)
